One compound from publication PMC4769088, “Antifungal Activity and Action Mechanism of Histatin 5-Halocidin Hybrid Peptides against Candida ssp” (PLoS ONE, 2016) can be followed below.

Each structure is given as a SMILES string. Where a SMILES comes first, the peptide text is derived from it. Bridges are numbered along the chain shown (N, C = ends). Roman numbers before positions name the chains, in order.

Data set [1] relates to C. guilliermondi CCARM 14018. Type of data set: cell-based. The settings on record: CCARM 14018, 24 h. As for the experimental part:
(§1) To determine the candidacidal activity of the peptides, we used Candida strains obtained from the Culture collection of antimicrobial resistant microbes at Seoul Women’s University in Korea. These included three Candida albicans (CCARM 14020, 14021, 14022), Candida guillermondi and Candida tropicalis. In addition, Candida albicans SC5413 was kindly provided by Dr Jeong-Yoon Kim at the Department of Microbiology & Molecular Biology, Chungnam University, Korea. Yeast were cultured overnight at 30°C in 10 ml of yeast extract-peptone-dextrose (YPD) broth (Qbiogene), then diluted in 10 ml of YPD broth to OD600 = 0.2 and grown for an additional 4 h with shaking at 30°C until OD600 = 0.8 in order to obtain mid-log phase cultures. The peptides (Hst 5, P113, HHP1, HHP2, PH1, PH2, di-PH1, di-PH2, WP1, di-WP2, di-15Hc and di-18Hc) in this study were synthesized by using standard solid-phase synthesis protocols and were purified by reversed-phase high-performance liquid chromatography at Anygen Inc. (Korea). FITC-labeled peptides (F-Hst5, F-P113, F-HHP1, F-di-PH2, F-di-WP2 and F-di-18Hc) were also synthesized by 6-aminohexnoic acid linker at Anygen (Korea) for confocal experiments.
(§2) The candidacidal activities of the peptides were tested by using standard microdilution plate assays, radial diffusion assays and broth dilution assay slightly modified from the procedure recommended by the National Committee for Clinical Laboratory Standards. For the candidacidal assays, C. albicans cells were grown in YPD medium and washed twice with 10 mM sodium phosphate buffer (NaPB; Na2HPO4, NaH2PO4, pH 7.4). The cells (1 x 10^6) were then mixed with different concentrations of peptides and incubated at 30°C with constant shaking for 60 min. For energy depletion experiments, cells were pre-incubated with 10 mM NaPB containing 5 mM NaN3 at 30°C for 60 min before the addition of peptides. The cell suspensions were diluted in 10 mM NaPB and aliquots of 500 cells were spread onto YPD agar plates then incubated for 24 h at 30°C to visualize the surviving colonies. Cell survival was expressed as a percentage of that for the control, and the loss of viability was calculated as [1 x (number of colonies from peptide-treated cells/number of colonies from control cells)] x 100. Candidacidal assays were performed in triplicate. For the radial diffusion assay, C. albicans cells were grown in YPD medium overnight and washed twice with 10 mM NaPB. Washed yeast-phase C. albicans cells (1 x 10^6 CFU) were trapped in thin underlay gels containing 9 mM sodium phosphate, 1 mM sodium citrate buffer, 1% (wt/vol) agarose (A6013; Sigma), and 0.3 mg of Sabouraud dextrose broth (Difco)/ml. After incubation at 37°C for 3 h, a 10 ml overlay gel of 1% agarose and 6% Sabouraud dextrose broth was poured on the underlay gel and then the plates were incubated overnight at 37°C. The clear-zone diameters were measured to the nearest 0.1 mm and graphed against the peptide concentration. Zone diameters were expressed in units (0.1 mm = 1 unit). For the broth dilution assay, the Candida strains were cultured in LYM broth for 18 h at 30°C. The numbers of yeasts were counted using a hemocytometer. Stock peptide solutions were prepared to a concentration of 320 μg/ml in distilled water, and were then serially diluted twofold, to 5 μg/ml. 100 μl aliquots of the diluted culture media containing candida cells (1 x 10^3) were dispensed into the wells of 96-well polypropylene microtiter plates (Costar 3879, Corning, NY), to which peptide solution (11 μl) was then added. In the experiments conducted to assess the candidacidal activity of peptides in the presence of salt, we used LYM supplemented with 150 mM NaCl for the culture medium, which was mixed with the peptide solution. The antifungal activities were evaluated after 24 h of incubation at 30°C by the observation of visible turbidity the wells. […]

Data set [2] has as its system C. guilliermondi CCARM 14019. Type of data set: cell-based. The settings on record: CCARM 14019, 24 h. As for the experimental part: as §1, §2
The subject of a further data set is C. tropicalis. As to the kind of experiment: Broth dilution assay (MIC). The class given is cell-based, Candida tropicalis. The settings on record: 150 mM NaCl. As for the experimental part: as §1
The candidacidal activities of the peptides were tested by using standard microdilution plate assays, radial diffusion assays and broth dilution assay slightly modified from the procedure recommended by the National Committee for Clinical Laboratory Standards. For the candidacidal assays, C. albicans cells were grown in YPD medium and washed twice with 10 mM sodium phosphate buffer (NaPB; Na2HPO4, NaH2PO4, pH 7.4). The cells (1 x 10^6) were then mixed with different concentrations of peptides and incubated at 30°C with constant shaking for 60 min. For energy depletion experiments, cells were pre-incubated with 10 mM NaPB containing 5 mM NaN3 at 30°C for 60 min before the addition of peptides. The cell suspensions were diluted in 10 mM NaPB and aliquots of 500 cells were spread onto YPD agar plates then incubated for 24 h at 30°C to visualize the surviving colonies. Cell survival was expressed as a percentage of that for the control, and the loss of viability was calculated as [1 x (number of colonies from peptide-treated cells/number of colonies from control cells)] x 100. Candidacidal assays were performed in triplicate. For the radial diffusion assay, C. albicans cells were grown in YPD medium overnight and washed twice with 10 mM NaPB. […] The clear-zone diameters were measured to the nearest 0.1 mm and graphed against the peptide concentration. […] The numbers of yeasts were counted using a hemocytometer. […] The antifungal activities were evaluated after 24 h of incubation at 30°C by the observation of visible turbidity the wells. […]
(Dilution methods test growth across graded concentrations, often in twofold steps.)

Data set [3] can be described thus: CD spectra, secondary structure analysis. Type of data set: physicochemical. The conditions noted are these: 200 μg/ml peptide. As for the experimental part:
Circular dichroism (CD) spectra of the six peptides (Hst5, P113, HHP1, di-PH2, di-WP2 and di-18Hc) were measured with a J-715 spectropolarimeter (Jasco, Tokyo, Japan). Two hundred micrograms of each peptide was resuspended in 1 ml of 10 mM NaPB (pH 7.0) (i) without other additives, (ii) with 10% laminarin (LAM) or (iii) with 50% trifluoroethanol (TFE) (a known helix-inducing solvent). The spectra were measured at room temperature in a 1-mm-path-length quartz cell. The scanning speed was 10 nm/min (180 to 260 nm), and each spectrum was the average of five scans.
Fig 3 CD spectra of Hst5, P113, di-18Hc and hybrid peptides. This study was performed with one concentration (200 μg/ml) of each peptide in various buffers: 10 mM sodium phosphate buffer (Red line), 50% TFE in phosphate buffer (green line) and 20 mg of laminarin in phosphate buffer.

As to `CC(C)C[C@H](NC(=O)[C@@H](N)Cc1c[nH]c2ccccc12)C(=O)N[C@@H](CC(N)=O)C(=O)N[C@@H](C)C(=O)N[C@@H](CCCCN)C(=O)N[C@@H](CCCNC(=N)N)C(=O)N[C@@H](Cc1c[nH]cn1)C(=O)N[C@@H](Cc1c[nH]cn1)C(=O)NCC(=O)N[C@@H](Cc1ccc(O)cc1)C(=O)N[C@@H](CCCCN)C(=O)N[C@@H](CSSC[C@H](NC(=O)[C@H](CCCCN)NC(=O)[C@H](Cc1ccc(O)cc1)NC(=O)CNC(=O)[C@H](Cc1c[nH]cn1)NC(=O)[C@H](Cc1c[nH]cn1)NC(=O)[C@H](CCCNC(=N)N)NC(=O)[C@H](CCCCN)NC(=O)[C@H](C)NC(=O)[C@H](CC(N)=O)NC(=O)[C@H](CC(C)C)NC(=O)[C@@H](N)Cc1c[nH]c2ccccc12)C(=O)N[C@@H](CCCCN)C(=O)N[C@@H](Cc1ccccc1)C(=O)N[C@@H](Cc1c[nH]cn1)C(N)=O)C(=O)N[C@@H](CCCCN)C(=O)N[C@@H](Cc1ccccc1)C(=O)N[C@@H](Cc1c[nH]cn1)C(N)=O` [di-WP2] (I: H-WLNAKRHHGYKCKFH-NH2 / II: H-WLNAKRHHGYKCKFH-NH2; disulfide I:12-II:12 (inferred); N-terminus assumed), the MICs in data set [1] lay in the range of 2 to 4 µg/mL. For the same compound, in data set [2], the MICs was in the range of 4 to 8 µg/mL. For the same compound, the “killing activities against C. tropicalis in 150 mM NaCl salt” value with C. tropicalis is “retained”. Moreover, in data set [3] (solvent 10mM NaPB (pH 7.0)), the “Secondary structure (%) Beta” value is listed as 22.0%, the “Secondary structure (%) Random” value came to 63.2% and the “Secondary structure (%) Turn” value was 14.8%. The “Secondary structure (%) Helix” value in data set [3] (solvent 10mM NaPB (pH 7.0), room temperature, average of five scans) stood at 0.0%. Besides, in data set [3] (solvent 50% TFE in 10 mM NaPB), the “Secondary structure (%) Beta” value is on record as 25.7%, the “Secondary structure (%) Helix” value worked out at 7.8%, the “Secondary structure (%) Random” value is given as 52.5% and the “Secondary structure (%) Turn” value is 13.9%.
